{"source": "patent US10493087B2", "about": "“Sialylation-increasing therapies for diseases associated with oxidative stress” (THE UNITED STATES OF AMERICA, AS REPRESENTED BY THE …, priority 2015, dated 2019)", "key": {"β-amyloid": {"tested_on": "β-amyloid", "assay": "β-amyloid expression by ELISA in muscle homogenates", "format": "in vivo, mice", "conditions": "after NAC treatment"}, "GNE Myopathy myotubes [1]": {"tested_on": "GNE Myopathy myotubes", "assay": "ROS generation under pro-oxidants (H2O2 or menadione), ΔDCF fluorescence", "format": "cell-based, mice", "protocol": "(§1) Cell cultures and myotubes analysis: Myocytes from Gne^−/−hGNED176V-Tg mice and littermate controls were proliferated in DMEM containing 20% fetal bovine serum and 1% chicken embryo extracts in a 5% CO2 and induced to differentiation in a serum free medium, OPTIPRO™ SFM (Gibco), to make the cells hyposialylated. Where indicated, myotubes were treated with 5 mM NeuAc (Japan Food and Liquor Alliance) or 5 mM NAC (Sigma) for 72 h.\nTo evaluate the ROS generation under pro-oxidants, myotubes cultured in each condition were loaded with 5 μM DCFH-DA for 1 h and recovered in the different concentrations of H2O2 or menadione-containing medium. After 30 min incubation in dark at 37° C., the microplate containing cells with pro-oxidants were placed in a plate reader and fluorescence was captured at every 5 min until it reached a plateau. Maximum fluorescence of each well was used for analysis."}, "[2]": {"assay": "Safety of long term NAC treatment (side effects, serum chemistry)", "format": "in vivo, mice", "excerpt": "N-Acetylcysteine (NAC) Treatment Protocols: Gne^−/−hGNED176V-Tg mice were randomly divided into high dose NAC (n=13), low dose NAC (n=13), or untreated control (n=17) groups. For NAC (Sigma) treatment, mice were provided ad libitum access to drinking water containing high dose NAC (1.0% w/v) or low dose NAC (0.1% w/v), which gives an average dose of 1.5 g/kg for high dose group and of 0.15 g/kg for low dose group per day. There was no difference in water consumption between mice receiving NAC supplemented water or regular drinking water. Treatment was initiated from the average age of 26 weeks until the mice reached at least 55 weeks. Three littermates groups (high dose NAC; n=7, low dose NAC; n=7, or untreated control; n=6) were treated in the same way."}, "GNE Myopathy myotubes [3]": {"tested_on": "GNE Myopathy myotubes", "assay": "Intracellular ROS (DCF fluorescence) in cultured myotubes", "format": "cell-based, mice", "conditions": "GNE Myopathy myotubes treated with 5 mM for 72 h; mean±SEM; untreated 1113±30, littermate controls 115±15", "protocol": "as §1\nFor the analysis of intracellular ROS, a popular fluorescence-based probe, 2′,7′-dichlorodihydrofluorescein diacetate (DCFH-DA) (Wang et al., Free Radical Biology and Medicine. 1999; 27:612-616; Halliwell and Whiteman, Br J Pharmacol. 2004; 142:231-255) was used. Cells were loaded with 5 μM DCFH-DA (Invitrogen) in PBS for an hour and recovered with phenol red-free DMEM (Gibco) for 30 min at 37° C. in a 5% CO2 incubator. Then the cells were placed in a CYTOFLUOR® Series 4000 multi-well fluorescence plate reader (PerSeptive Biosystems) with temperature maintained at 37° C. The excitation filter was set at 485 nm and the emission filter was set at 530 nm. The fluorescence from each well was captured and recorded."}, "Gne−/−hGNED176V-Tg mice": {"tested_on": "Gne−/−hGNED176V-Tg mice", "assay": "Motor performance analysis (treadmill performance and endurance tests)", "format": "in vivo", "conditions": "vs untreated", "protocol": "N-Acetylcysteine (NAC) Treatment Protocols: […] were randomly divided into high dose NAC (n=13), low dose NAC (n=13), or untreated control (n=17) groups. […] There was no difference in water consumption between mice receiving NAC supplemented water or regular drinking water. […] Three littermates groups (high dose NAC; n=7, low dose NAC; n=7, or untreated control; n=6) were treated in the same way. Motor performance analysis: The motor performance was evaluated using treadmill exercise as previously reported (9, 10) with minor modification. Briefly, after 7 days of acclimation on the treadmill, two exercise tests were performed on separate days. […] The time of exhaustion was used to calculate the total distance of the mice ran during the exercise. The endurance exercise consisted of a 60-min treadmill run at 20 m/min with a […] incline, during which the number of beam breaks or rests were recorded. Both tests were done twice with 2 days rest in between."}, "GNE Myopathy muscle": {"tested_on": "GNE Myopathy muscle", "assay": "Gene expression analysis of muscle (quantitative RT-PCR and microarray)", "format": "in vivo, mice", "protocol": "Quantitative RT-PCR and microarray analysis: […] Microarray experiments were carried out using a […] Mouse Whole Genome Bioarray (Applied Microarrays Inc.) at Filgen Inc. The arrays were scanned using a […] Array Scanner (Molecular Devices Inc.). The data were analyzed by using Microarray Data Analysis Tool version 3.2 (Filgen Inc.). For quantitative PCR, TAQMAN® probes were used in combination with the TAQMAN® Gene Expression Master Mix (Applied Biosystems) in a total reaction of 20 μl. STEPONEPLUSTM Real-Time PCR System (Applied Biosystems) was used to quantify mRNA expression. mRNA relative expression was normalized to internal control (GAPDH) and determined as fold change in the average expression value of littermate muscles. The TAQMAN® probes used were as follows: F-box protein 32 (Fbxo32), Mm00499523_m1; tripartite motif-containing 63 (Trim63), Mm01185221_m1; Sulfiredoxin1 homolog (Srxn1), Mm00769566_m1; metallothionein 1 (Mt1), Mm00496660_g1; metallothionein 2 (Mt2), Mm00809556_s1; metallothionein 3 (Mt3), Mm00496661_g1; LC3b, Mm00782868_sH. N-Acetylcysteine (NAC) Treatment Protocols: […] were randomly divided into high dose NAC (n=13), low dose NAC (n=13), or untreated control (n=17) groups. […] There was no difference in water consumption between mice receiving NAC supplemented water or regular drinking water. […] Three littermates groups (high dose NAC; n=7, low dose NAC; n=7, or untreated control; n=6) were treated in the same way."}, "[4]": {"conditions": "HD and LD treated GNE Myopathy muscles"}}}
{"smiles": "CC(=O)N[C@@H](CS)C(=O)O", "note": "[NAC, N-acetylcysteine]", "values": [{"measurement": "β-amyloid expression by ELISA in muscle homogenates", "setting": "β-amyloid", "value": "decreased"}, {"measurement": "Protective effect in the high oxidative stress condition", "setting": "GNE Myopathy myotubes [1]; GNE Myopathy myotubes, H2O2 or menadione, more evident for menadione", "value": "worked effectively"}, {"measurement": "ΔDCF fluorescence compared to littermate myotubes", "setting": "GNE Myopathy myotubes [1]; treated GNE Myopathy myotubes under menadione exposure", "value": "comparable"}, {"measurement": "Adverse side effects", "setting": "[2]; long term treatment of mice", "value": "No adverse side effects"}, {"measurement": "Alkaline phosphatase", "setting": "[2]; treated vs untreated mice", "value": "no difference"}, {"measurement": "Blood urea nitrogen", "setting": "[2]; treated vs untreated mice", "value": "no difference"}, {"measurement": "Serum aspartate aminotransferase", "setting": "[2]; treated vs untreated mice", "value": "no difference"}, {"measurement": "Mean DCF fluorescence (intracellular ROS generation)", "setting": "GNE Myopathy myotubes [3]", "value": "191±10", "unit": "AFU"}, {"measurement": "Treadmill performance and endurance tests", "setting": "Gne−/−hGNED176V-Tg mice; high dose (HD) 1.5 g/kg per day in drinking water", "value": "significantly improved"}, {"measurement": "Motor function (treadmill)", "setting": "Gne−/−hGNED176V-Tg mice; low dose (LD) 0.15 g/kg per day in drinking water", "value": "better motor function"}, {"measurement": "Upregulation of atrogenes (atrogin-1 and MuRF1)", "setting": "GNE Myopathy muscle; [4]", "value": "recovered"}, {"measurement": "Upregulation of oxidative stress responsive genes (MT1 and MT2)", "setting": "GNE Myopathy muscle; [4]", "value": "recovered"}, {"measurement": "LC3b expression (marker of autophagy)", "setting": "GNE Myopathy muscle; treated GNE Myopathy muscles, RT-PCR and microarray", "value": "recovered as well"}]}
